Measurements as given in publication PMC9388626, “STUB1 is an intracellular checkpoint for interferon gamma sensing” (Scientific Reports, 2022).

Experiments:
MCF7 cells [1] = assay: Growth inhibition, CellTiter-Glo 2.0 (ATP); format: cell-based, human; conditions: MCF7, 10 ng ml^−1, 6 days
Experimental: (§1) Parental and CRISPR-edited tumour cells were seeded in a cell density of 1800 (DU145), 2000 (PC-3), or 10,000 (MCF7) per well in 96-well CellCarrier plate (PelkinElmer, #6005550) filled with 50 µl culture media + 10% FBS. After 20–24 h incubation, the cells were treated with 10 ng ml^−1 of recombinant human IFNγ (R&D Systems, 285-IF-100), 10 ng ml^−1 of recombinant human TNFα (R&D Systems, 210-TA-020/CF) or a combination of both, by adding an equal volume of the complete culture media containing the cytokines. After incubating for 6 days without media change, the CellTiter-Glo 2.0 (Promega, G9243) or CellTiter-Fluor (Promega, G6082) assay were performed according to manufacturer’ instructions. The luminescence or fluorescence (Ex: 380–400 nm, Em: 505 nm) were detected by Inifinte M1000 PRO (Tecan). For CellTiter-Fluor, triplicate wells without cells were included to determine background fluorescence and the signal average was used for background substraction.

DU145 cells = assay: Growth inhibition, CellTiter-Fluor (live-cell protease activity); format: cell-based, human; set-up: scale not given here; conditions: 10 ng ml-1 each, 6-day
Experimental: as §1

MCF7 cells [2] = assay: as above; format: cell-based, human; set-up: scale not given here; conditions: 10 ng ml-1 each, 6-day
Experimental: as §1

PC-3 cells = assay: as above; format: cell-based, human; set-up: scale not given here; conditions: 10 ng ml-1 each, 6-day
Experimental: as §1

B16-F10 cells = assay: Flow cytometry, surface IFNGR1, mCherry2-peptide stable cells; format: cell-based, murine; conditions: stable expression; resting and IFNγ-stimulated (mouse IFNγ 0.03 ng ml^−1, 24 h)
Text: (§2) To generate the plasmids, gBlocks gene fragments (IDT) encoding the inhibitory biologic (FLAG-mCherry2-GGSGGS-SIWWPD) and the control biologic (FLAG-mCherry2-GGSGGS-SIWWHR) were cloned into pEF6 vector (Thermo Fisher Scientific) by standard restriction enzyme digestion and T4 DNA ligation. The final constructs were verified by Sanger sequencing. Coding sequences of the constructs are provided in Supplementary Table S5. To generate the stable cell lines, a total of 2 × 10^5 B16-F10, A375 or A549 cells were electroporated with 200 ng plasmid using DJ-110, FF-120 or CM-130 respectively—the preset programmed in 4D-nucleofector system (Lonza). The preparation of the cell suspension and the process of the electroporation are similar to that described in the CRISPR method section. The stable cell lines were selected using 10 µg ml^−1 blasticidin three days post-electroporation and were maintained in 5 µg ml^−1 blasticidin once the stable colonies were established. […]
(§3) Cells were dissociated from the wells with 0.25% trypsin (Gibco, 25200056). […] Cells were analyzed on LSRFortessa X-20 (BD Biosciences) with appropiate fluorescence compensation. The data were analyzed using FlowJo. […]

A375 cells [3] = assay: as above; format: cell-based; conditions: A375, stable expression; untreated or human IFNγ 0.01 ng ml^−1, 24 h
Text: as §2, §3

A549 cells [4] = assay: as above; format: cell-based; conditions: A549, stable expression; untreated or human IFNγ 0.01 ng ml^−1, 24 h
Text: as §2, §3

A375 cells [5] = assay: Flow cytometry, surface MHC-I, mCherry2-peptide stable cells; format: cell-based; conditions: A375, stable expression; human IFNγ 0.01 ng ml^−1, 24 h
Text: as §2, §3

A549 cells [6] = assay: as above; format: cell-based; conditions: A549, stable expression; human IFNγ 0.01 ng ml^−1, 24 h
Text: as §2, §3

STUB1 = assay: Co-immunoprecipitation of FLAG-mCherry2-peptide and STUB1; format: binding, murine; conditions: B16-F10 lysate, anti-FLAG
Experimental: B16-F10 cells stably expressing the biologic were harvested, rinsed with PBS, and lysed with chilled cell lysis buffer (Cell Signaling Technology, #9803) supplemented with Halt protease inhibitor cocktail (Life Technologies, #78430) and phosphatase inhibitor (Sigma-Aldrich, # 4906837001). Cellular lysates were clarified by centrifugation at 15,000 rpm at 4 °C for 15 min. Protein concentration was determined using BCA protein assay kit (Pierce, #23225). For each sample of the co-immunoprecipitation (co-IP), 20 µl of anti-FLAG magnetic beads (Sigma-Aldrich, M8823) was rinsed twice with 0.2 ml PBS, followed by addition of 500 µl diluted cellular lysate (60 µg, 0.12 µg µl^−1). For competitive inhibition, synthetic peptide (SIWWPD) was added into the co-IP mixture. The resulting mixture was rotated at room temperature for 4 h, after which the beads were rinsed with 3 × 0.5 ml PBS to remove the unbound proteins. Bound protein complexes were directly eluted with a 20 µl solution of LDS sample buffer (Life Technologies, NP0008) supplemented with sample reducing agent (Life Technologies, NP0009), followed by heating at 70 °C for 10 min. […] Blotting was similar to the Western Blot section described above. Primary antibodies used were: STUB1/CHIP (Cell Signaling Technology, #2080, 1:1000 dilution), FLAG (Sigma-Aldrich, F1804, 1:1000 dilution). […]

Substance: TNFα
- Growth inhibition of PTPN2- or STUB1-null cells (MCF7 cells [1]): could sensitize MCF7 breast tumour cell
- FC in live-cell protease activity relative to parental cells (DU145 cells; DU145 PTPN2 sgRNA, replicate 1): 0.07
- FC in live-cell protease activity relative to parental cells (DU145 cells; DU145 PTPN2 sgRNA, replicate 2): 0.13
- FC in live-cell protease activity relative to parental cells (DU145 cells; DU145 PTPN2 sgRNA, replicate 3): -0.00707
- FC in live-cell protease activity relative to parental cells (DU145 cells; DU145 Parental, replicate 1): -0.0322
- FC in live-cell protease activity relative to parental cells (DU145 cells; DU145 Parental, replicate 2): 0.08
- FC in live-cell protease activity relative to parental cells (DU145 cells; DU145 Parental, replicate 3): -0.05
- FC in live-cell protease activity relative to parental cells (DU145 cells; DU145 STUB1 sgRNA, replicate 1): 0.0056
- FC in live-cell protease activity relative to parental cells (DU145 cells; DU145 STUB1 sgRNA, replicate 2): 0.0106
- FC in live-cell protease activity relative to parental cells (DU145 cells; DU145 STUB1 sgRNA, replicate 3): 0.16
- FC in live-cell protease activity relative to parental cells (DU145 cells; DU145 control sgRNA, replicate 1): -0.0256
- FC in live-cell protease activity relative to parental cells (DU145 cells; DU145 control sgRNA, replicate 2): -0.00666
- FC in live-cell protease activity relative to parental cells (DU145 cells; DU145 control sgRNA, replicate 3): -0.0248
- FC in live-cell protease activity relative to parental cells (MCF7 cells [2]; MCF7 PTPN2 sgRNA, replicate 1): -0.29
- FC in live-cell protease activity relative to parental cells (MCF7 cells [2]; MCF7 PTPN2 sgRNA, replicate 2): -0.31
- FC in live-cell protease activity relative to parental cells (MCF7 cells [2]; MCF7 PTPN2 sgRNA, replicate 3): -0.32
- FC in live-cell protease activity relative to parental cells (MCF7 cells [2]; MCF7 Parental, replicate 1): 0.00519
- FC in live-cell protease activity relative to parental cells (MCF7 cells [2]; MCF7 Parental, replicate 2): -0.01
- FC in live-cell protease activity relative to parental cells (MCF7 cells [2]; MCF7 Parental, replicate 3): 0.00479
- FC in live-cell protease activity relative to parental cells (MCF7 cells [2]; MCF7 STUB1 sgRNA, replicate 1): -0.18
- FC in live-cell protease activity relative to parental cells (MCF7 cells [2]; MCF7 STUB1 sgRNA, replicate 2): -0.39
- FC in live-cell protease activity relative to parental cells (MCF7 cells [2]; MCF7 STUB1 sgRNA, replicate 3): -0.36
- FC in live-cell protease activity relative to parental cells (MCF7 cells [2]; MCF7 control sgRNA, replicate 1): -0.14
- FC in live-cell protease activity relative to parental cells (MCF7 cells [2]; MCF7 control sgRNA, replicate 2): -0.16
- FC in live-cell protease activity relative to parental cells (MCF7 cells [2]; MCF7 control sgRNA, replicate 3): -0.18
- FC in live-cell protease activity relative to parental cells (PC-3 cells; PC-3 PTPN2 sgRNA, replicate 1): 0.08
- FC in live-cell protease activity relative to parental cells (PC-3 cells; PC-3 PTPN2 sgRNA, replicate 2): -0.06
- FC in live-cell protease activity relative to parental cells (PC-3 cells; PC-3 PTPN2 sgRNA, replicate 3): 0.13
- FC in live-cell protease activity relative to parental cells (PC-3 cells; PC-3 Parental, replicate 1): 0.11
- FC in live-cell protease activity relative to parental cells (PC-3 cells; PC-3 Parental, replicate 2): -0.05
- FC in live-cell protease activity relative to parental cells (PC-3 cells; PC-3 Parental, replicate 3): -0.07
- FC in live-cell protease activity relative to parental cells (PC-3 cells; PC-3 STUB1 sgRNA, replicate 1): 0.20
- FC in live-cell protease activity relative to parental cells (PC-3 cells; PC-3 STUB1 sgRNA, replicate 2): 0.00375
- FC in live-cell protease activity relative to parental cells (PC-3 cells; PC-3 STUB1 sgRNA, replicate 3): -0.0246
- FC in live-cell protease activity relative to parental cells (PC-3 cells; PC-3 control sgRNA, replicate 1): 0.19
- FC in live-cell protease activity relative to parental cells (PC-3 cells; PC-3 control sgRNA, replicate 2): 0.026
- FC in live-cell protease activity relative to parental cells (PC-3 cells; PC-3 control sgRNA, replicate 3): -0.06

Substance: mCherry2-SIWWPD
- Cell surface IFNGR1 (B16-F10 cells): upregulation of IFNGR1 on the cell surface of B16-F10, under both resting and IFNγ-stimulating conditions
- Cell surface IFNGR1 (A375 cells [3]): also resulted in the same phenotype
- Cell surface IFNGR1 (A549 cells [4]): also resulted in the same phenotype
- Cell surface MHC-I (A375 cells [5]): boost the surface levels of MHC-I in response to IFNγ
- Cell surface MHC-I (A549 cells [6]): boost the surface levels of MHC-I in response to IFNγ
- Co-precipitation of STUB1 (STUB1): STUB1 was co-precipitated
